For the experiment, the target named is T1, GST-tagged ROR gamma ligand binding domain (LBD) (Homo sapiens, UniProt P51449).
T1 construct: purchased Invitrogen
T1 sequence (P51449 269-508 limits assumed): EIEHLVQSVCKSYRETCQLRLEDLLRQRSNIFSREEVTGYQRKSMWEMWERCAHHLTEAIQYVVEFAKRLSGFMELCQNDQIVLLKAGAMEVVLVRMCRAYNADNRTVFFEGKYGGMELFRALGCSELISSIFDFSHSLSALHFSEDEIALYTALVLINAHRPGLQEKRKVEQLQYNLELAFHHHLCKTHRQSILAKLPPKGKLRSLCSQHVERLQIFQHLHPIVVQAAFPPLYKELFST
The experiment in a line: TR-FRET assay for ROR gamma (LanthaScreen co-activator peptide recruitment). The note with it: for IC50: class symbols, from dose response curve; for inhibition at 1 µM: compound 1 μM; for inhibition at 1 µM / inhibition at 10 µM: TR-FRET ratio 520/495, percent of control; for inhibition at 10 µM: compound 10 μM. In kind it is biochemical. In outline: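 Antagonist mode: 10 nM GST-RORγ LBD pre-incubated with compound 1 h at 22 °C in 25 mM HEPES pH 7.4, 100 mM NaCl, 5 mM DTT, 0.01% BSA, 4% DMSO final. Then 300 nM fluorescein-D22 co-activator peptide plus 10 nM Tb-anti-GST added, 1 h at room temperature. IC50 by nonlinear regression of the 520/495 TR-FRET ratio as percent of no-compound control.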

The text below walks through data of US9718817B2, “Aryl and heteroaryl ether compounds as ROR gamma modulators” (Glenmark Pharmaceuticals S.A., priority 2014, dated 2017).

What is called IC50 is the midpoint of a concentration-inhibition curve. A lower IC50 goes with higher potency. For orientation: inhibition means the share of the control response that was lost under treatment.

For `CCS(=O)(=O)c1ccc(CC(=O)Nc2ccc(C#CC(C)(C)Oc3ccc(Cl)cc3F)cc2)cc1` [Example 65, N-{4-[3-(4-Chloro-2-fluoro-phenoxy)-3-methyl-but-1-yn-1-yl]-phenyl}-2-(4-ethanesulfonyl-phenyl)-acetamide], the IC50 is less than 50 nM, the inhibition at 1 µM is 83.9% and the inhibition at 10 µM is 88.2%.
Consider `CCS(=O)(=O)c1ccc(CC(=O)Nc2ccc(C#CC(C)(C)Oc3ccc(Cl)c(F)c3)cc2)cc1` [Example 66, N-{4-[3-(4-Chloro-3-fluoro-phenoxy)-3-methyl-but-1-yn-1-yl]-phenyl}-2-(4-ethanesulfonyl-phenyl)-acetamide], for which the IC50 was less than 50 nM, the inhibition at 1 µM amounted to 84.3% and the inhibition at 10 µM was 87.5%.
`CCS(=O)(=O)c1ccc(CC(=O)Nc2ccc(C#CC(C)(C)Oc3ccc(F)cc3Cl)cc2)cc1` [Example 67, N-{4-[3-(2-Chloro-4-fluoro-phenoxy)-3-methyl-but-1-yn-1-yl]-phenyl}-2-(4-ethanesulfonyl-phenyl)-acetamide]: the inhibition at 1 µM is 70.5% and the inhibition at 10 µM came to 75.7%.
For `CCS(=O)(=O)c1ccc(CC(=O)Nc2ccc(C#CC(C)(C)Oc3ccc(F)c(Cl)c3)cc2)cc1` [Example 68, N-{4-[3-(3-Chloro-4-fluoro-phenoxy)-3-methyl-but-1-yn-1-yl]-phenyl}-2-(4-ethanesulfonyl-phenyl)-acetamide], in that order: 70.7% and 79.9%.
In the case of `CCS(=O)(=O)c1ccc(CC(=O)Nc2ccc(C#CC(C)(C)Oc3ccc(F)cc3F)cc2)cc1` [Example 69, N-{4-[3-(2,4-Difluoro-phenoxy)-3-methyl-but-1-yn-1-yl]-phenyl}-2-(4-ethanesulfonyl-phenyl)-acetamide], the concentration for half-maximal inhibition (IC50) lay within 50 to 100 nM, the inhibition at 1 µM is 71.6% and the inhibition at 10 µM stood at 81.8%.
The corresponding values for `CCS(=O)(=O)c1ccc(CC(=O)Nc2ccc(C#CC(C)(C)Oc3ccc(F)c(F)c3)cc2)cc1` [Example 70, N-{4-[3-(3,4-Difluoro-phenoxy)-3-methyl-but-1-yn-1-yl]-phenyl}-2-(4-ethanesulfonyl-phenyl)-acetamide] are less than 50 nM, 77.7% and 81.3%.
The corresponding values for `CCS(=O)(=O)c1ccc(CC(=O)Nc2ccc(C#CC(C)(C)Oc3cc(F)c(F)c(F)c3)cc2)cc1` [Example 71, 2-(4-Ethanesulfonyl-phenyl)-N-{4-[3-methyl-3-(3,4,5-trifluoro-phenoxy)-but-1-yn-1-yl]-phenyl}-acetamide] are less than 50 nM, 75.9% and 79.9%.
For `CCS(=O)(=O)c1ccc(CC(=O)Nc2ccc(C#CC(C)(C)Oc3ccc(F)c(F)c3F)cc2)cc1` [Example 72, 2-(4-Ethanesulfonyl-phenyl)-N-{4-[3-methyl-3-(2,3,4-trifluoro-phenoxy)-but-1-yn-1-yl]-phenyl}-acetamide], in that order: less than 50 nM, 76.2% and 79.7%.
In the case of `CCS(=O)(=O)c1ccc(CC(=O)Nc2ccc(C#CC(C)(C)Oc3c(F)cc(F)cc3F)cc2)cc1` [Example 73, 2-(4-Ethanesulfonyl-phenyl)-N-{4-[3-methyl-3-(2,4,6-trifluoro-phenoxy)-but-1-yn-1-yl]-phenyl}-acetamide], the IC50 was less than 50 nM, the inhibition at 1 µM worked out at 75.4% and the inhibition at 10 µM turned out to be 78.6%.
The corresponding values for `CCS(=O)(=O)c1ccc(CC(=O)Nc2ccc(C#CC(C)(C)Oc3cc(F)c(F)cc3F)cc2)cc1` [Example 74, 2-(4-Ethanesulfonyl-phenyl)-N-{4-[3-methyl-3-(2,4,5-trifluoro-phenoxy)-but-1-yn-1-yl]-phenyl}-acetamide] are less than 50 nM, 73.6% and 78.8%.
For `CCS(=O)(=O)c1ccc(CC(=O)Nc2ccc(C#CC(C)(C)Oc3c(F)cc(Cl)cc3F)cc2)cc1` [Example 75, N-{4-[3-(4-Chloro-2,6-difluoro-phenoxy)-3-methyl-but-1-yn-1-yl]-phenyl}-2-(4-ethanesulfonyl-phenyl)-acetamide], in that order: less than 50 nM, 83.2% and 84%.
The corresponding values for `CCS(=O)(=O)c1ccc(CC(=O)Nc2ccc(C#CC(C)(C)Oc3ccc(C(F)(F)F)cc3)cc2)cc1` [Example 76, 2-(4-Ethanesulfonyl-phenyl)-N-{4-[3-methyl-3-(4-trifluoromethyl-phenoxy)-but-1-yn-1-yl]-phenyl}-acetamide] are less than 50 nM, 82.2% and 86.2%.
Consider `CCS(=O)(=O)c1ccc(CC(=O)Nc2ccc(C#CC(C)(C)Oc3ccc(OC(F)(F)F)cc3)cc2)cc1` [Example 77, 2-(4-Ethanesulfonyl-phenyl)-N-{4-[3-methyl-3-(4-trifluoromethoxy-phenoxy)-but-1-yn-1-yl]-phenyl}-acetamide], for which the IC50 is less than 50 nM, the inhibition at 1 µM turned out to be 82.8% and the inhibition at 10 µM is 87.1%.
For `CCS(=O)(=O)c1ccc(CC(=O)Nc2ccc(C#CC(C)(C)Oc3ccc(OC(F)F)cc3)cc2)cc1` [Example 78, N-{4-[3-(4-Difluoromethoxy-phenoxy)-3-methyl-but-1-yn-1-yl]-phenyl}-2-(4-ethanesulfonyl-phenyl)-acetamide], in that order: less than 50 nM, 85.2% and 87.4%.
The corresponding values for `CCS(=O)(=O)c1ccc(CC(=O)Nc2ccc(C#CC(C)(C)Oc3ccc(C#N)cc3)cc2)cc1` [Example 79, N-{4-[3-(4-Cyano-phenoxy)-3-methyl-but-1-yn-1-yl]-phenyl}-2-(4-ethanesulfonyl-phenyl)-acetamide] are less than 50 nM, 79.9% and 86.1%.
Turning to `CCS(=O)(=O)c1ccc(CC(=O)Nc2ccc(C#CC(C)(C)Oc3ccc(Cl)cc3F)nc2)cc1` [Example 80, N-{6-[3-(4-Chloro-2-fluoro-phenoxy)-3-methyl-but-1-yn-1-yl]-pyridin-3-yl}-2-(4-ethanesulfonyl-phenyl)-acetamide], the inhibition at 1 µM is 50.2% and the inhibition at 10 µM stood at 62.4%.
`CCS(=O)(=O)c1ccc(CC(=O)Nc2ccc3c(c2)nc(C(C)(C)Oc2ccc(C(F)(F)F)cc2)n3C)cc1` [Example 81, 2-[4-(Ethylsulfonyl)phenyl]-N-(1-methyl-2-{2-[4-(trifluoromethyl)phenoxy]propan-2-yl}-1H-benzimidazol-5-yl)acetamide]: the IC50 was greater than 100 nM, the inhibition at 1 µM was 76% and the inhibition at 10 µM came to 88.9%.
The corresponding values for `CCS(=O)(=O)c1ccc(CC(=O)Nc2ccc3c(c2)nc(C(C)(C)Oc2ccc(F)c(F)c2)n3C)cc1` [Example 82, N-{2-[2-(3,4-Difluorophenoxy)propan-2-yl]-1-methyl-1H-benzimidazol-5-yl}-2-[4-(ethylsulfonyl)phenyl]acetamide] are 50 to 100 nM, 82% and 88.4%.
Take `CCS(=O)(=O)c1ccc(CC(=O)Nc2ccc3c(c2)nc(C(C)(C)Oc2ccc(Cl)cc2F)n3C)cc1` [Example 83, N-{2-[1-(4-Chloro-2-fluoro-phenoxy)-1-methyl-ethyl]-1-methyl-1H-benzoimidazol-5-yl}-2-(4-ethanesulfonyl-phenyl)-acetamide]: the IC50 was 50 to 100 nM, the inhibition at 1 µM stood at 83.3% and the inhibition at 10 µM amounted to 92%.
On to `CCS(=O)(=O)c1ccc(CC(=O)Nc2ccc3c(c2)nc(C(C)(C)Oc2ccc(Cl)cc2Cl)n3C)cc1` [Example 84, N-{2-[2-(2,4-Dichlorophenoxy)propan-2-yl]-1-methyl-1H-benzimidazol-5-yl}-2-[4-(ethylsulfonyl)phenyl]acetamide], for which the IC50 was less than 50 nM, the inhibition at 1 µM amounted to 89.7% and the inhibition at 10 µM came out at 90.2%.
On to `CCS(=O)(=O)c1ccc(CC(=O)Nc2ccc3c(c2)nc(C(C)(C)Oc2ccc(Cl)c(Cl)c2)n3C)cc1` [Example 85, N-{2-[2-(3,4-Dichlorophenoxy)propan-2-yl]-1-methyl-1H-benzimidazol-5-yl}-2-[4-(ethylsulfonyl)phenyl]acetamide], for which the IC50 is less than 50 nM, the inhibition at 1 µM came to 87.1% and the inhibition at 10 µM is 91.2%.
The corresponding values for `CCn1c(C(C)(C)Oc2ccc(Cl)cc2F)nc2cc(NC(=O)Cc3ccc(S(=O)(=O)CC)cc3)ccc21` [Example 86, N-{2-[2-(4-Chloro-2-fluorophenoxy)propan-2-yl]-1-ethyl-1H-benzimidazol-5-yl}-2-[4-(ethylsulfonyl)phenyl]acetamide] are less than 50 nM, 92.8% and 93.8%.
For the compound `CCn1c(C(C)(C)Oc2ccc(Cl)c(F)c2)nc2cc(NC(=O)Cc3ccc(S(=O)(=O)CC)cc3)ccc21` [Example 87, N-{2-[1-(4-Chloro-3-fluoro-phenoxy)-1-methyl-ethyl]-1-ethyl-1H-benzoimidazol-5-yl}-2-(4-ethanesulfonyl-phenyl)-acetamide], the IC50 was less than 50 nM, the inhibition at 1 µM was determined as 90.8% and the inhibition at 10 µM was 94.8%.
